From ChEMBL document CHEMBL4043103, “Design, synthesis, and biological evaluation of some novel indolizine derivatives as dual cyclooxygenase and lipoxygenase inhibitor for anti-inflammatory activity” (Bioorg Med Chem, 2017)

Columns and labels:
[1] = Solubility of the compound in water by shake-flask method; type: physicochemical; conditions: buffer
[2] = species on record: Rattus norvegicus; experiment: animal or person; conditions: Wistar, po, read-out: INH
[3] = Solubility of the compound in ethanol by shake-flask method; type: physicochemical
[4] = species on record: Rattus norvegicus; experiment: animal or person; conditions: Wistar, po, read-out: INH; remark: listed apart in the source
[5] = Solubility of the compound in DMSO by shake-flask method; type: physicochemical
[6] = species on record: Rattus norvegicus; experiment: animal or person; conditions: Wistar, po, read-out: INH; remark: listed apart in the source
[7] = species on record: Rattus norvegicus; experiment: animal or person; conditions: Wistar, po, read-out: INH; remark: listed apart in the source
[8] = Solubility of the compound in chloroform by shake-flask method; type: physicochemical
[9] = n-Octanol-water partition coefficient, log P of the compound by shake-flask method; type: physicochemical
[10] = Solubility of the compound in methanol by shake-flask method; type: physicochemical
[11] = Solubility of the compound in acetone by shake-flask method; type: physicochemical
[12] = biological target: T1, Prostaglandin G/H synthase 1 (Ovis aries, UniProt P05979)
T1 sequence (P05979 whole entry): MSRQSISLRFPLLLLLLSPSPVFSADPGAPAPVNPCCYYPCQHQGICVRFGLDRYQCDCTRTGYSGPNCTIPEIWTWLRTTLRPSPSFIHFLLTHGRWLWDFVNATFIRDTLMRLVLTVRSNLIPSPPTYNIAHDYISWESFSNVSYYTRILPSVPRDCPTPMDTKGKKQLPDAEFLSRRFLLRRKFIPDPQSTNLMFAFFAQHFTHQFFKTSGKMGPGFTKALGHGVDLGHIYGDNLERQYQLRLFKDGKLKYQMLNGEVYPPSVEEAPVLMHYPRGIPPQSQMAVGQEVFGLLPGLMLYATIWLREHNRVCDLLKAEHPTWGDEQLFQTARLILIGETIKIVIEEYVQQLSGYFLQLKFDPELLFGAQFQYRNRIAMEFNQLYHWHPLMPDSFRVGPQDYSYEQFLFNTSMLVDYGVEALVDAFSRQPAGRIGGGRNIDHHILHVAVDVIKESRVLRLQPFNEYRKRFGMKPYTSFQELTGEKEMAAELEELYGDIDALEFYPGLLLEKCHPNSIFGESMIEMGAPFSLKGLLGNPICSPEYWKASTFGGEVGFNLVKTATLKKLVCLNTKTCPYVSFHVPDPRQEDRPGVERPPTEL
Description: Inhibition of ovine COX-1 preincubated for 5 mins followed by arachidonic acid substrate addition by colorimetric enzyme immunoassay

[13] = species on record: Rattus norvegicus; experiment: Gastrointestinal toxicity in adjuvant-induced Wistar rat arthritis model assessed as ulcer index treated for 7 days measured on day 21 post arthritis induction; conditions: in vivo, 168 h
[14] = Non noncompetitive inhibition of soybean lipoxygenase preincubated for 5 mins followed by substrate addition measured after 20 mins by Lineweaver-Burk plot analysis; set-up: species or system Glycine max
[15] = biological target: T2, Prostaglandin G/H synthase 2 (Homo sapiens, UniProt P35354)
T2 sequence (P35354 whole entry): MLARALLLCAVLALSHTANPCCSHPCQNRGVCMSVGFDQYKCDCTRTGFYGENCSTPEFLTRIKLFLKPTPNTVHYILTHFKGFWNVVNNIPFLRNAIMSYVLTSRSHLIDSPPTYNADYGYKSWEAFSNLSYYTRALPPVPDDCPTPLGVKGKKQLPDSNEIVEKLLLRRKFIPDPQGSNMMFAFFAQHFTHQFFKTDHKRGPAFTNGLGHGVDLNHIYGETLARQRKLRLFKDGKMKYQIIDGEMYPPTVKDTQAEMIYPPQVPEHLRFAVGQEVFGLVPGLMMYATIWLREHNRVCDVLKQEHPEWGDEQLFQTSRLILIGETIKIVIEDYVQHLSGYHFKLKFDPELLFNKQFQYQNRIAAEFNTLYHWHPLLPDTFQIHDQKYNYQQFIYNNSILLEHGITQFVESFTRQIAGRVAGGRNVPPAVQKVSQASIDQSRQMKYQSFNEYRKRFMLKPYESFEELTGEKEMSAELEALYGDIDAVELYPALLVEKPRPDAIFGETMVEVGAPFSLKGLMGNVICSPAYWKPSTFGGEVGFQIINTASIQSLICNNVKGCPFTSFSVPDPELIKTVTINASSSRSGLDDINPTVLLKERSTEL
Description: Inhibition of human COX-2 preincubated for 5 mins followed by arachidonic acid substrate addition by colorimetric enzyme immunoassay

[16] = Inhibition of soybean lipoxygenase preincubated for 5 mins followed by linoleic acid substrate addition measured after 20 mins by spectrophotometric method; set-up: species or system Glycine max
[17] = biological target: T2, Prostaglandin G/H synthase 2; experiment: Non noncompetitive inhibition of human COX-2 preincubated for 5 mins followed by arachidonic acid substrate addition by Lineweaver-Burk plot analysis
[18] = test system: RAW264.7; experiment: Anti-inflammatory activity in mouse RAW264.7 cells assessed as reduction in LPS-induced NO production by Griess assay; type: functional, cell-based
[19] = test system: Rattus norvegicus; experiment: Anti inflammatory activity in carrageenan-induced Wistar rat paw edema model assessed as inhibition of left hind paw edema size at 10 mg/kg, po pretreated for 1 hr followed by carrageenan challenge measured after 6 hrs by plethysmometry method (reference value: 0%); type: functional
[20] = test system: Rattus norvegicus; experiment: Anti inflammatory activity in carrageenan-induced Wistar rat paw edema model assessed as inhibition of left hind paw edema size at 10 mg/kg, po pretreated for 1 hr followed by carrageenan challenge measured after 4 hrs by plethysmometry method (reference value: 0%); type: functional
[21] = test system: Rattus norvegicus; experiment: Anti inflammatory activity in carrageenan-induced Wistar rat paw edema model assessed as inhibition of left hind paw edema size at 10 mg/kg, po pretreated for 1 hr followed by carrageenan challenge measured after 2 hrs by plethysmometry method (reference value: 0%); type: functional
[22] = test system: Rattus norvegicus; experiment: Anti inflammatory activity in arachidonic acid-induced Wistar rat paw edema model assessed as inhibition of right hind paw edema thickness at 10 mg/kg, po pretreated for 30 mins followed by arachidonic acid challenge measured after 1 hr (reference value: 0%); type: functional

SMILES	solubility [1]	inhibition in vivo at 10 mg/kg [2] [%]	solubility [3]	inhibition in vivo at 10 mg/kg [4] [%]	solubility [5]	inhibition in vivo at 10 mg/kg [6] [%]	inhibition in vivo at 10 mg/kg [7] [%]	solubility [8]	logP [9]	solubility [10]	solubility [11]	UI [13]	other results
NCc1c(-c2ccc(C(F)(F)F)cc2)c(C(=O)O)c2ccccn12	Soluble	42.8	Soluble	67.7	Soluble	62.8	40	Insoluble	2.06	Soluble	Soluble		
Cc1c(C(=O)O)c2ccccn2c1CN	Soluble	41.3	Soluble	38.5	Soluble	44.2	23.1	Insoluble	0.72	Soluble	Soluble		
CCCCc1c(C(=O)O)c2ccccn2c1CN	Soluble	23.8	Soluble	23.9	Soluble	24.4	15.4	Insoluble	2.07	Soluble	Soluble		
NCc1c(-c2ccccc2)c(C(=O)O)c2ccccn12	Soluble	68.2	Soluble	88.6	Soluble	90.5	66.2	Insoluble	1.85	Soluble	Soluble	10	IC50 [12]: > 50 µM; Ki [14]: 0.72 µM; IC50 [15]: 14.9 µM; IC50 [16]: 13.1 µM; Ki [17]: 0.92 µM
CCc1c(C(=O)O)c2ccccn2c1CN	Soluble	30.2	Soluble	34.3	Soluble	32.5	20.2	Insoluble	1.45	Soluble	Soluble		
NCc1c(-c2ccc(F)cc2)c(C(=O)O)c2ccccn12	Soluble	69.8	Soluble	86.4	Soluble	89.5	61.5	Insoluble	2.12	Soluble	Soluble		
Cc1ccc2n1[C@@H]1[C@H]3O[C@]([C@H](C)O)(C=C2)[C@H]1c1cc([C@H]2C=Cc4ccc(C)n4[C@@H]2C)cn1[C@@H]3C													IC50 [18]: 5.31 µM
COc1cc(-c2c(C(=O)O)c3ccccn3c2CN)ccc1O	Soluble	50.8	Soluble	59.4	Soluble	63.9	36.9	Insoluble	1.55	Soluble	Soluble		
NCc1c(-c2ccc3c(c2)OCO3)c(C(=O)O)c2ccccn12	Soluble	61.9	Soluble	78.1	Soluble	74.4	23.1	Insoluble	2.07	Soluble	Soluble		
Cc1ccc(-c2cc(C(F)(F)F)nn2-c2ccc(S(N)(=O)=O)cc2)cc1 [CELECOXIB]												53	
O=C(O)Cc1ccccc1Nc1c(Cl)cccc1Cl [DICLOFENAC]												46	inhibition in vivo at 10 mg/kg [19]: 90.9%; inhibition in vivo at 10 mg/kg [20]: 91.6%; inhibition in vivo at 10 mg/kg [21]: 74.6%
CC1(C)Cc2c(-c3ccccc3)c(-c3ccc(Cl)cc3)c(CC(=O)O)n2C1 [LICOFELONE]													IC50 [12]: 0.16 µM; IC50 [16]: 0.21 µM
CC(c1cc2ccccc2s1)N(O)C(N)=O (stereo not given) [ZILEUTON]												52	IC50 [16]: 3.43 µM; inhibition in vivo at 10 mg/kg [22]: 72.3%
